Laboratory results reported in patent US11155546B2, “4,6,7-trisubstituted 1,2-dihydropyrrolo[3,4-c]pyridin/pyrimidin-3-one derivatives and uses thereof” (SHANGHAI HAIYAN PHARMACEUTICAL TECHNOLOGY CO., LTD., priority 2017, dated 2021).

Legend:
[1] = biological target: BTK WT (Homo sapiens (Human), UniProt Q06187); experiment: Lantha screening kinase reaction, inhibition of BTK WT; format: biochemical
Method: The compound was predissolved in 100% DMSO. 10 mM drug stock solution was obtained by dissolution at room temperature and then serially diluted with 8 vol % DMSO solution to a final concentration of 10-0.005 μM. […] Among the wells, the kinase in the blank well was replaced with a reaction buffer and the kinase well (Enzyme) was not added with any drug. After shaking at 25° C. for 60 minutes in the dark, 10 μl of Detection Solution (mixture of Invitrogen PV3528 and EDTA, which was diluted with TR-FRET dilution buffer, the working concentration of EDTA was 5 mM, the working concentration of Lanthascreening Tb PY20 antibody was 0.2 nM) was added and shaken at room temperature for 30 minutes. The plates were read on a VictorX5 fluorescent plate reader (PerkinElmer) and the light absorption at an excitation wavelength of 340 nm and emission wavelengths of 500 nm and 520 nm was measured.
The calculation method for the inhibition ratio (referring to the specification of Invitrogen, PV3363) was as follows: Emission ratio (ER):Coumarin Emission (520 nm)/Fluorescein Emission (500 nm) 1. The inhibition ratio (IR):(ERkinase−ERtest compound)/(ERkinase−ERblank)×100%. 2.
The half-inhibitory concentration IC50 was calculated by fitting with XLFIT5.0 software (IDBS, UK).

[2] = biological target: wild-type EGFR kinase (Homo sapiens (Human), UniProt P00533); experiment: Wild type EGFR kinase inhibition test (z-lyte); format: biochemical; details: 10 μM ATP; read-out: EGFR WT IC50
Excerpt: All the following reagents used in z-lyte test are commercially available from Invitrogen.
The calculation method for the inhibition ratio (referring to the specification of Invitrogen, PV3363) was as follows: ER=Coumarin Emission(450 nm)/Fluorescein Emission(520 nm) 1. Phosphorylation ratio=(1−((ER×C3520nm−C3450nm)/((C1450nm−C3450nm)+ER×(C3520nm−C1520nm))))×100% 2. Inhibition ratio (IR)=(1−phosphorylation ratio of the test compound)/(phosphorylation ratio of C2))×100% 3.
The half-inhibitory concentration IC50 was calculated by fitting with XLFIT 5.0 software (IDBS, UK).

[3] = in vivo; details: male, ICR, mouse, in vivo, po, 30 mg/kg
Method: Test Animals: ICR mice, weight 28-30 g, male, totally 12, purchased from SLAC Laboratory Animal Co., Ltd. Mice were fasting one night before administration and freely fed 4 hours after administration.
Administration and Blood collection: 6 mice were administered intragastrically (PO) in a administered dosage of 30 mg/kg and a administered volume of 10 mL/kg. One administration route was subjected with 6 mice, blood samples of three mice were collected at one time point, and blood samples of another three mice were collected at alternate time point alternately. Blood was collected at 8 time points of 0.083, 0.25, 0.5, 1, 2, 4, 8, 24 h after administration respectively.
Animals were manually controlled at the time of collection and approximately 80 μL of blood was collected from the mice fundus venous plexus into a tube containing K2EDTA. The collected blood sample was put on wet ice, centrifuged within 15 min (8000 rpm, 4 min at 4° C.), and then the plasma sample was taken and stored at minus 20° C. till analysis. The compounds were prepared on the day of the experiment.
Solvent excipient information: DMSO (brand: Sigma, batch number: SHBD2446V); 2-hydroxypropyl-3-cyclodextrin (brand: Sigma, batch number: BCBN8227V), acetic acid (brand: Sinopharm Group, batch number: 20150616), sodium acetate (Brand: GENERAL-REAGENT, batch number: P1246037).
Preparation of a 3 mg/mL PO dosing solution: the solvent was a solution of 5% DMSO and 95% PH4.5 (sodium acetate-acetate) in 20% of 2-hydroxypropyl-β-cyclodextrin.
Analytical method: Plasma samples were analyzed by liquid chromatography-tandem mass spectrometry (Instrument type: Triple Quad™ 4000).
Preparation of the standard curve: preparing a standard curve of the test compound 1n the plasma matrix of ICR mice with a linear range of 1.00-3000 ng/mL, and preparing control samples at low, medium and high concentrations of 3 ng/mL, 500 ng/mL, and 2400 ng/mL respectively.
Treatment of biological samples: the frozen plasma samples were thawed on ice, and after the samples were thawed, they were vortexed on a vortex for 5 min. 20 μL of plasma sample was added to a 96-well plate, and 200 μL of acetonitrile (brand: Merck, Lot: 1854029643) containing an internal standard dexamethasone (Brand: NIFDC, Lot: 1N2V-DPGY, 2000 ng/mL) was added to precipitate protein, which were vortexed for 5 min, and then centrifuged at 3700 rpm and 4° C. for 15 min. The supernatant was extracted and twice centrifuged under the same conditions, and finally 2 μL of the supernatant solution was analyzed by LC-MS/MS.

Chain of BTK WT (Q06187 whole entry): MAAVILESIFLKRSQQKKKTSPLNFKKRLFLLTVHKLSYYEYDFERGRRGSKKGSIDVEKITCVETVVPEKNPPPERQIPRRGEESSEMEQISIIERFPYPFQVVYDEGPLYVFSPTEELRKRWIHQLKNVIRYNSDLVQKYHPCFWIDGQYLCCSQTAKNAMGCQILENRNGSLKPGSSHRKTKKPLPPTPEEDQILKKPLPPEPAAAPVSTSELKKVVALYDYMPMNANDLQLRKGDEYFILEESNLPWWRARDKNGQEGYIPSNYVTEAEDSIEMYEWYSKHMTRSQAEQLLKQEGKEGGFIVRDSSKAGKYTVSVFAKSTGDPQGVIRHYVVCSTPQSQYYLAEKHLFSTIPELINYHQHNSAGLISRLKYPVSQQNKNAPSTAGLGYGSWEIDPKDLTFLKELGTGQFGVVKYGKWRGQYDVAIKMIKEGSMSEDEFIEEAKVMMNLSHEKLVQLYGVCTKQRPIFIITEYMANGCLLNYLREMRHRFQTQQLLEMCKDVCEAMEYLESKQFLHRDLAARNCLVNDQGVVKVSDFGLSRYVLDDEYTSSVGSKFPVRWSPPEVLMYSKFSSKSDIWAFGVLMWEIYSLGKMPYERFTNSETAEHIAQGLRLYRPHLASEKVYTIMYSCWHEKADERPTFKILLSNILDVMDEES
Chain of wild-type EGFR kinase (P00533 25-1210): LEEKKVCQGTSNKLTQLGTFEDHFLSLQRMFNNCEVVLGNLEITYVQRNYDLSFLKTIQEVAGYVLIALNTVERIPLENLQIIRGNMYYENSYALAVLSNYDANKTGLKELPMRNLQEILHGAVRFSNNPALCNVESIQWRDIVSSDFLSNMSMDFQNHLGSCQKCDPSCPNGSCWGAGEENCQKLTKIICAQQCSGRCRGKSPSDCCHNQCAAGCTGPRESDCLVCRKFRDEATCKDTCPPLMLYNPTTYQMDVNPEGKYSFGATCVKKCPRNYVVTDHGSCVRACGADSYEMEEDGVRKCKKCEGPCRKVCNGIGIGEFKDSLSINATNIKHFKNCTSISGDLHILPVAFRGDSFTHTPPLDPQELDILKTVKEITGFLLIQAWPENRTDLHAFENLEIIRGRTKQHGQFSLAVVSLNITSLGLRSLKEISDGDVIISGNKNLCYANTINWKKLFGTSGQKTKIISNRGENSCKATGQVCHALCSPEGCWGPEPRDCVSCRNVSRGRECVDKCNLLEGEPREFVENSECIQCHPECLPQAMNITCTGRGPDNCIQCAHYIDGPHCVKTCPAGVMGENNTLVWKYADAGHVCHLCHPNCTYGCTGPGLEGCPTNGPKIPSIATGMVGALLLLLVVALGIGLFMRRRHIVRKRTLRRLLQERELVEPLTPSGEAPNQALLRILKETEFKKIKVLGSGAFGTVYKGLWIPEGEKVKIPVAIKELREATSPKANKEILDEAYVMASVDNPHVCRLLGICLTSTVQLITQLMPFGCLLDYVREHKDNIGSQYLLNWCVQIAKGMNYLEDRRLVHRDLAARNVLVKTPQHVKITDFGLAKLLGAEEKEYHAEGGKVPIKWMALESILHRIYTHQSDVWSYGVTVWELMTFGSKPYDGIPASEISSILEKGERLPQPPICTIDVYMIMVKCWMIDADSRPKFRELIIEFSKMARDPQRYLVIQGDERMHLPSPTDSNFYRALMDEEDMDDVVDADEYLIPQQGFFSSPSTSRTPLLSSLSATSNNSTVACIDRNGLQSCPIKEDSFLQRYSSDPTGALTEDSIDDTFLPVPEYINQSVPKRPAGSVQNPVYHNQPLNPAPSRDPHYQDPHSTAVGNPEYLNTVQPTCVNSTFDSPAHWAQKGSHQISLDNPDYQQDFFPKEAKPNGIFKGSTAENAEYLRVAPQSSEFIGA

SMILES	IC50 [1] [nM]	IC50 [2] [nM]	also measured
C=CC(=O)N1CCCC(Nc2nc(Nc3ccc(N4CCC(O)C(C)(C)C4)cn3)c3c(c2F)CNC3=O)C1 (stereo not drawn) [Compound G-21]	59	8310	–
C=CC(=O)N1C[C@H](N(C)c2nc(-c3cnn(C)c3)c3c(c2F)CNC3=O)CC[C@H]1C [Compound G-99]	18	–	–
C=CC(=O)N1CCCCC(Nc2nc(-c3cnn(C)c3)c3c(c2F)CNC3=O)C1 (stereo not drawn) [Compound G-47]	75	> 10000	–
C=CC(=O)N1CCC[C@@H](Nc2nc(Nc3ccc(CN4CCOCC4)cc3)c3c(c2F)CNC3=O)C1 [Compound G-97]	5	–	–
C=CC(=O)N1CCCC(Nc2nc3c(c(-c4cnn(C)c4)n2)C(=O)NC3)C1 (stereo not drawn) [Compound G-58, 2-(1-acryloylpiperidin-3-ylamino)-4-(1-methyl-1H-pyrazole-4-yl)-6,7-dihydrogen-5H-pyrrolo[3,4-d]pyrimidine-5(2H)-one]	80	> 10000	–
C=CC(=O)N1CC2CCN(c3nc(Nc4cnn(C)c4)c4c(c3F)CNC4=O)C2C1 (stereo not drawn) [Compound G-84]	89	> 10000	–
C=CC(=O)N1CCC[C@H](N(C)c2nc(-c3cnn(C)c3)c3c(c2F)CNC3=O)C1 [Compound G-112]	18	> 10000	–
C=CC(=O)N1CCCC(Nc2nc(Nc3ccc(OCCO)cc3)c3c(c2F)CNC3=O)C1 (stereo not drawn) [Compound G-16]	2	2750	–
C=CC(=O)N1CCCC(Nc2nc(Nc3ccc(C(=O)N4CCOCC4)cc3)c3c(c2F)CNC3=O)C1 (stereo not drawn) [Compound G-24]	5	1790	–
C=CC(=O)N1CCCC(Nc2nc(Nc3ccc(N4CCN(C)CC4)nc3)c3c(c2F)CNC3=O)C1 (stereo not drawn) [Compound G-18]	41	1600	–
C=CC(=O)N1CCC[C@@H](N(C)c2nc(-c3c[nH]c(C)n3)c3c(c2F)CNC3=O)C1 [Compound G-105]	8	–	–
C=CC(=O)N1CCC[C@H](Nc2nc(-c3cnn(C)c3)c3c(c2F)CNC3=O)[C@@H]1C [Compound G-109]	62	6820	–
C=CC(=O)N1CCCC(N(CC)c2nc(Nc3ccc(N4CCOCC4)cc3)c3c(c2F)CNC3=O)C1 (stereo not drawn) [Compound G-74, 6-((1-acryloylpiperidin-3-yl)(ethyl)amino)-7-fluoro-4-(4-morpholin)-1H-pyrrolo[3,4-c]pyridine-3(2H)-one]	7	1370	–
C=CC(=O)N1CCC2(CCN(c3nc(-c4cnn(C)c4)c4c(c3F)CNC4=O)C2)C1 (stereo not drawn) [Compound G-77]	51	> 10000	–
C=CC(=O)N1CCCC(Nc2nc(Nc3ccc(N4CCN(C5COC5)CC4C)cn3)c3c(c2F)CNC3=O)C1 (stereo not drawn) [Compound G-22]	66	–	–
C=CC(=O)N1CCCC(Nc2nc(-c3cnc(C)s3)c3c(c2F)CNC3=O)C1 (stereo not drawn) [Compound G-53]	51	7440	–
C=CC(=O)N1C[C@H](N(C)c2nc(Nc3ccc(N4CCOCC4)c(F)c3)c3c(c2F)CNC3=O)CC[C@@H]1C [Compound G-92]	8	–	–

SMILES	IC50 [1] [nM]	IC50 [2] [nM]	also measured
C=CC(=O)N1CCCC(N(C)c2nc(-c3cnc(C)s3)c3c(c2F)CNC3=O)C1 (stereo not drawn) [Compound G-66, 6-((1-acryloylpiperidin-3-yl)(methyl)amino)-7-fluoro-4-(2-methylthiazole-5-yl)-1H-pyrrolo[3,4-c]pyridine-3(2H)-one]	15	> 10000	–
C=CC(=O)N1CCC[C@@H](Nc2nc(Nc3ccc(N4CCOC[C@@H]4C)cc3F)c3c(c2F)CNC3=O)C1 [Compound G-102]	5	–	–
C=CC(=O)N1CCCC(Nc2nc(-c3cnn(C)c3)c3c(c2F)CNC3=O)C1 (stereo not drawn) [Compound G-54]	15	> 10000	–
C=CC(=O)N1CCC[C@@H](Nc2nc(Nc3ccc(N4CCN(C5COC5)C[C@@H]4C)c(F)c3)c3c(c2F)CNC3=O)C1 [Compound G-91]	5	–	AUC [3]: 3150 ng·h/mL; Cmax [3]: 2910 ng/mL; Tmax [3]: 0.25 h; bioavailability [3]: 21.3%; half-life [3]: 4.7 h
C=CC(=O)N1CCCC(N(C)c2nc(-c3cnn(CCN4CCOCC4)c3)c3c(c2F)CNC3=O)C1 (stereo not drawn) [Compound G-64, 6-((1-acryloylpiperidin-3-yl)(methyl)amino)-7-fluoro-4-(1-(2-morpholinethyl)-1H-pyrazole-4-yl)-1H-pyrrolo[3,4-c]pyridine-3(2H)-one]	62	> 10000	–
C=CC(=O)N1CCCC(N(C)c2nc3c(c(Nc4cnn(C)c4)n2)C(=O)NC3)C1 (stereo not drawn) [Compound G-75, 2-((1-acryloylpiperidin-3-yl)(methyl)amino)-4-(1-methyl-1H-pyrazole-4-ylamino)-6,7-dihydrogen-5H-pyrrolo[3,4-d]pyrimidine-5-one]	6	1630	–
C=CC(=O)N1CCCC(N(C)c2nc(Nc3cnn(C)c3)c3c(c2F)CNC3=O)C1 (stereo not drawn) [Compound G-70, 6-((1-acryloylpiperidin-3-yl)(methyl)amino)-7-fluoro-4-(1-methyl-1H-pyrazole-4-ylamino)-1H-pyrrolo[3,4-c]pyridine-3(2H)-one]	5	> 10000	–
C=CC(=O)N1CCC[C@@H](N(C)c2nc(-c3cnc(C)s3)c3c(c2F)CNC3=O)C1 [Compound G-94]	20	–	–
C=CC(=O)N1CC(N(C)c2nc(-c3cnn(C)c3)c3c(c2F)CNC3=O)CCC1C (stereo not drawn) [Compound G-65, 6-((1-acryloyl-6-methylpiperidin-3-yl)(methyl)amino)-7-fluoro-4-(1-methyl-1H-pyrazole-4-yl)-1H-pyrrolo[3,4-c]pyridine-3(2H)-one]	7	> 10000	–
C=CC(=O)N1C[C@H](Nc2nc(Nc3ccc(N4CCN(C5COC5)C[C@@H]4C)c(F)c3)c3c(c2F)CNC3=O)CC[C@@H]1C [Compound G-95]	5	–	–
C=CC(=O)N1CCCC(Nc2nc(Nc3cnn(C)c3)c3c(c2F)CNC3=O)C1 (stereo not drawn) [Compound G-38]	2	1290	–
C=CC(=O)N1CCC(Nc2nc(Nc3ccc(OCCOC)cc3)c3c(c2F)CNC3=O)C1 (stereo not drawn) [Compound G-9]	7	1010	–
C=CC(=O)N1CC2CN(c3nc(-c4cnn(C)c4)c4c(c3F)CNC4=O)CC2C1 (stereo not drawn) [Compound G-89]	5	–	–
C=CC(=O)N1CCC[C@@H](Nc2cc3c(c(Nc4ccc(N5CCOCC5)cc4)n2)C(=O)NC3)C1 [Compound G-107]	5	–	–
C=CC(=O)N1CCCCC(N(C)c2nc(Nc3ccc(N4CCOCC4)cc3)c3c(c2F)CNC3=O)C1 (stereo not drawn) [Compound G-73, 6-((1-acryloylazacycloheptan-3-yl)(methyl)amino)-7-fluoro-4-(4-morpholin)-1H-pyrrolo[3,4-c]pyridine-3(2H)-one]	5	1560	–
C=CC(=O)N1CCC[C@@H](N(C)c2nc(-c3cnn(C)c3)c3c(c2F)CNC3=O)C1 [Compound G-113]	5	6170	–
